Key:
[1] = Complexing constant Log K in methanol at 25° C.; type: binding
Description: K is the complexing constant of a CEM and a […] cation in methanol, at 25° C., which is measured according to the standard method of isothermal calorimetric titration.

[2] = Liquid-liquid extraction of mono-salt saline solution
Text: The extracting composition is obtained by solubilizing an amount of CEM and ASM in the selected fluidizing agent, dichloromethane CH2Cl2, dichlorobenzene or dichlorotoluene or any other fluidizing agent able to well solubilize the mixture CEM/ASM in order to obtain the searched final concentrations after solubilizing CEMs and ASMs in a minimum of 3 milliliters of fluidizing agent. If the selected fluidizing agent is also an ASM compound, so the selected ASM volume is at least 3 milliliters. The given concentrations of ASM2 and ASM9 are related to the added fluidizing agent volume and the concentrations of CEM are related to the added fluidizing agent+ASM volume. The extracting organic composition is then lightly heated so as to promote the solubilization of the organic compounds by means of a heat gun (temperature around 50 to 60° C.) for a few seconds (10 to 30 seconds) until a clear solution is obtained. The composition is thus left for 24 hours at room temperature so as to make sure that the obtained formulation is stable.
These sealed formulations are then orbitally stirred at 500 revolutions/minute for two hours after adding an equivalent volume of water which was distilled twice so as to allow a water saturation of the whole formulation and a pH control at the inlet and at the outlet (pH close to 7, or at least maintained after contact with the saturation water).
3 mL of the prepared extracting organic composition are then taken from the lower phase of the decanted diphasic mixture and transferred to a vial containing 3 mL of the water containing the one or more considered chloride salts (NaCl or others), then the vial is sealed and orbitally stirred (at 500 revolutions per minute) for 2 hours at room temperature (RT), that is to say between 20 and 25° C.
A verification is made to make sure that droplets in the range of 1-2 mm are really present during these stirrings in order to be sure that an equilibrium in the distribution of the considered chloride salt (NaCl or other) is achieved between both liquid phases at the end of stirring. The aspect of the organic and aqueous phases is clear and colorless or slightly turbid.
Once the 2-hour stirring is carried out, the stirring is stopped and the whole is left for decantation for about 10 minutes, at least until both phases are completely separated, at the temperature of the assay. Then, the upper aqueous phase is taken then stirred and diluted in order to analyze its salinity by a ion chromatography (a Metrohm™ device including a cation analyzing column and an anion analyzing column suitable for the ions and for the concentration of the salts which are searched for). Likewise, the chloride salt (NaCl or other) initial aqueous solution is also analyzed by this ion chromatography to determine its cation and chloride molar relative concentration before the extraction. All the extractions and analyses were duplicated.
The considered extracting composition comprises 0.1 mol/L of CEM1 and 3.52 mol/L of ASM2 in dichloromethane CH2Cl2, which was obtained as described above. The initial concentration of the considered salt in water, whether it is LiCl, NaCl, KCl, MgCl2, CaCl2, SrCl2 or BaCl2, is 0.1 mol/L.
After carrying out these 7 specific extractions (duplicated) of salts, the amounts of extracted cations in relative molar percentage before and after extraction at room temperature and at water/extracting formulation iso-volume are indicated in table I: […]

[3] = Extraction isotherms of CaCl2 at room temperature and 80° C.; conditions: 0.1M CEM2 + 1M ASM9 in 12ClPh, Org./Water = 1
Description: Concerning the extraction or back extraction assays at a higher temperature, in particular at 60° C. or at 80° C., a magnetic stirring (at 500 revolutions per minute), for 2 hours, is carried out with an indirect thermostatically-controlled heating in a metal mold on a hotplate.
This series of examples aims to establish two extraction isotherms of CaCl2 at 20° C. and at 80° C. for an extracting composition including 0.1 Mol/L of CEM2, combined with 1 Mol/L of ASM9; the whole dissolved in 1,2-dichlorobenzene.
After carrying out the 7 specific extractions (duplicated) of salts, the amounts of extracted cations in relative molar percentage before and after extraction at room temperature and at water/extracting formulation iso-volume are indicated in table IV: […]
The same series of extractions was then carried out at 80° C. to give table V as follows: […]

[4] = Selective extraction from a binary mixture NaCl/CaCl2; conditions: for % E Ca^++ / % E Na^+: RT, molar %
Text: A brine containing an equimolar mixture of salts, 0.05 mol/L of NaCl and CaCl2 each, which was made as described above, was contacted with two extracting compositions, one of which according to the invention.
Each extracting composition comprises 0.1 mol/L of CEM
[drawing 53] and 2.4 mol/L of ASM9 in 1,2-dichlorobenzene.
A brine containing a mixture of NaCl and CaCl2 is made as described above to obtain the following initial saline concentrations in a mixture: 0.2 Mol/L of NaCl and 0.03 Mol/L of CaCl2. The extracting resin, is composed of 0.1 Mol/L of CEM2, 3.52 Mol/L of ASM2 and a complement of liquid ASM1, which is also used as a fluidizing agent.

[5] = 0.1M CEM + 3.52M ASM2 in CH2Cl2, initial salt 0.1 mol/L, Org./Water = 1, molar %
[6] = 0.1 Mol/L CEM2 + 3.52 Mol/L ASM2 + complement of liquid ASM1, brine 0.2 Mol/L NaCl and 0.03 Mol/L CaCl2
[7] = 0.1 mol/L CEM + 2.4 mol/L ASM9 in 1,2-dichlorobenzene, brine 0.05 mol/L NaCl and CaCl2 each

Structure (SMILES): CCN(CC)C(=O)COc1c2cc(C(C)(C)C)cc1Cc1cc(C(C)(C)C)cc(c1OCC(=O)N(CC)CC)Cc1cc(C(C)(C)C)cc(c1OCC(=O)N(CC)CC)Cc1cc(C(C)(C)C)cc(c1OCC(=O)N(CC)CC)Cc1cc(C(C)(C)C)cc(c1OCC(=O)N(CC)CC)Cc1cc(C(C)(C)C)cc(c1OCC(=O)N(CC)CC)C2 [CEM2, 4-tert-butyl-Calix[6]arene hexakis(N,N-diethylacetamide)]
- Log K(Cs^+, MeOH, 25° C.) [1]: 2.8
- Log K(K^+, MeOH, 25° C.) [1]: 3.3
- Log K(Li^+, MeOH, 25° C.) [1]: 2.6
- Log K(Na^+, MeOH, 25° C.) [1]: 2.8
- Log K(Rb^+, MeOH, 25° C.) [1]: 2.6
- Extraction rate at room temperature (RT), BaCl2 [2, 5]: 63.2%
- Extraction rate at room temperature (RT), CaCl2 [2, 5]: 57.8%
- Extraction rate at room temperature (RT), KCl [2, 5]: 25.4%
- Extraction rate at room temperature (RT), LiCl [2, 5]: 21.9%
- Extraction rate at room temperature (RT), MgCl2 [2, 5]: 13.5%
- Extraction rate at room temperature (RT), NaCl [2, 5]: 22.7%
- Extraction rate at room temperature (RT), SrCl2 [2, 5]: 63.8%
- Calcium to sodium extraction rate ([2]; solutions containing only one of these salts (example 3)): 2.54
- Extraction rate at 80° C., CaCl2 ([3]; 0.01M): 11%
- Extraction rate at 80° C., CaCl2 ([3]; 0.02M): 16%
- Extraction rate at 80° C., CaCl2 ([3]; 0.03M): 18%
- Extraction rate at 80° C., CaCl2 ([3]; 0.04M): 17%
- Extraction rate at 80° C., CaCl2 ([3]; 0.1M): 18%
- Extraction rate at 80° C., CaCl2 ([3]; 0.2M): 16%
- Extraction rate at 80° C., CaCl2 ([3]; 0.4M): 10%
- Extraction rate at room temperature (RT), CaCl2 ([3]; 0.01M): 39%
- Extraction rate at room temperature (RT), CaCl2 ([3]; 0.02M): 42%
- Extraction rate at room temperature (RT), CaCl2 ([3]; 0.03M): 41%
- Extraction rate at room temperature (RT), CaCl2 ([3]; 0.04M): 40%
- Extraction rate at room temperature (RT), CaCl2 ([3]; 0.1M): 34%
- Extraction rate at room temperature (RT), CaCl2 ([3]; 0.2M): 27%
- Extraction rate at room temperature (RT), CaCl2 ([3]; 0.4M): 16%
- % E Ca^++ [4, 6]: 88.0%
- % E Na^+ [4, 6]: 5.0%
- % E Ca^++ [4, 7]: 56.0%
- % E Na^+ [4, 7]: 4.0%
- Ratio of the Ca/Na extraction rates ([4]; 0.2 Mol/L NaCl and 0.03 Mol/L CaCl2 (example 7)): 17.6
- Calcium to sodium extraction rate ([4]; mixture with an iso-concentration of cations (example 6)): 14 times

Source: US12623942B2, “Method for extracting salts and temperature- regenerated extracting composition” (ADIONICS, priority 2016, dated 2026)
